US10961202B2, “Bis-benzimidazole compounds and methods of using the same” (THE SCRIPPS RESEARCH INSTITUTE, priority 2017, dated 2021)

Each compound was assayed on r(CUG)12-MBNL1 complex (assay: Inhibition of the r(CUG)12-MBNL1 complex measured by TR-FRET). Conditions: Table M; 80 nM RNA, 60 nM MBNL1-His6.
Format: biochemical

IC50 [µM]	SMILES
103	c1cc2nc(-c3ccc(-c4nc5ccc(OCCN6CCCC6)cc5[nH]4)cc3)[nH]c2cc1OCCN1CCCC1 [Compound 203]
129	Oc1ccc2nc(-c3ccc(-c4nc5ccc(OCCN6CCCC6)cc5[nH]4)cc3)[nH]c2c1 [Compound 204]
64.4	CC(=O)NCCN1CCN(CCNC(=O)c2ccc3nc(-c4ccc(-c5nc6ccc(C(=O)NCCN7CCCCC7)cc6[nH]5)cc4)[nH]c3c2)CC1 [Compound 206]
48.6	CN(C)CCCSCCOc1ccc2nc(-c3ccc(-c4nc5ccc(OCCSCCCN(C)C)cc5[nH]4)cc3)[nH]c2c1 [Compound 207]
101	CN1CCC(Oc2ccc3nc(-c4ccc(-c5nc6ccc(OC7CCN(C)CC7)cc6[nH]5)cc4)[nH]c3c2)CC1 [Compound 208]
19.4	CN(C)CCCCCCOc1ccc2nc(-c3ccc(-c4nc5ccc(O)cc5[nH]4)cc3)[nH]c2c1 [Compound 209]
33.3	CN(C)CCSCCOc1ccc2nc(-c3ccc(-c4nc5ccc(OCCSCCN(C)C)cc5[nH]4)cc3)[nH]c2c1 [Compound 210]
112	CN(C)CCN(C)CCOc1ccc2nc(-c3ccc(-c4nc5ccc(OCCN(C)CCN(C)C)cc5[nH]4)cc3)[nH]c2c1 [Compound 211]
20.5	CN(C)CCCOc1cccc2nc(-c3ccc(-c4nc5cccc(OCCCN(C)C)c5[nH]4)cc3)[nH]c12 [Compound 215, 3,3′-((2,2′-(1,4-phenylene)bis(1H-benzo[d]imidazole-7,2-diyl))bis(oxy))bis(N,N-dimethylpropan-1-amine)]
125	CN(C)CCCOc1cccc2nc(-c3ccc(-c4nc5cccc(O)c5[nH]4)cc3)[nH]c12 [Compound 216, 2-(4-(7-(3-(dimethylamino)propoxy)-1H-benzo[d]imidazol-2-yl)phenyl)-1H-benzo[d]imidazol-7-ol]
51.9	CN(C)Cc1ccc(COc2ccc3nc(-c4ccc(-c5nc6ccc(OCc7ccc(CN(C)C)cc7)cc6[nH]5)cc4)[nH]c3c2)cc1 [Compound 217]
68.7	CN(C)C[C@H]1CC[C@H](COc2ccc3nc(-c4ccc(-c5nc6ccc(OC[C@H]7CC[C@H](CN(C)C)CC7)cc6[nH]5)cc4)[nH]c3c2)CC1 [Compound 218, 1,1′-((1r,1′r,4r,4′r)-(((1,4-phenylenebis(1H-benzo[d]imidazole-2,6-diyl))bis(oxy))bis(methylene))bis(cyclohexane-4,1-diyl))bis(N,N-dimethylmethanamine)]
18.1	CN(C)[C@H]1CC[C@H](Oc2ccc3nc(-c4ccc(-c5nc6ccc(O[C@H]7CC[C@H](N(C)C)CC7)cc6[nH]5)cc4)[nH]c3c2)CC1 [Compound 219]
> 200	CN(C)CCCCc1ccc2nc(-c3ccc(-c4nc5ccc(CCCCN(C)C)cc5[nH]4)cc3)[nH]c2c1 [Compound 220, 4,4′-(2,2′-(1,4-phenylene)bis(1H-benzo[d]imidazole-6,2-diyl))bis(N,N-dimethylbutan-1-amine)]
95.3	CN(C)CCCOc1ccc2nc(-c3ccc(-c4nc5ccc(OCCCO)cc5[nH]4)cc3)[nH]c2c1 [Compound 222, 3-((2-(4-(5-(3-(dimethylamino)propoxy)-1H-benzo[d]imidazol-2-yl)phenyl)-1H-benzo[d]imidazol-5-yl)oxy)propan-1-ol]
> 200	OCCCOc1ccc2nc(-c3ccc(-c4nc5ccc(OCCCO)cc5[nH]4)cc3)[nH]c2c1 [Compound 223, 3,3′-((1,4-phenylenebis(1H-benzo[d]imidazole-2,5-diyl))bis(oxy))bis(propan-1-ol)]
63.4	CN(C)CCCOc1ccc2nc(-c3ccc(-c4nc5ccc(OCCCCO)cc5[nH]4)cc3)[nH]c2c1 [Compound 224]
154	OCCCCOc1ccc2nc(-c3ccc(-c4nc5ccc(OCCCCO)cc5[nH]4)cc3)[nH]c2c1 [Compound 225]

IC50 [µM]	SMILES
> 200	CN(C)CC#CCOc1ccc2nc(-c3ccc(-c4nc5ccc(OCC#CCN(C)C)cc5[nH]4)cc3)[nH]c2c1 [Compound 226, 4,4′-((2,2′-(1,4-phenylene)bis(1H-benzo[d]imidazole-6,2-diyl))bis(oxy))bis(N,N-dimethylbut-2-yn-1-amine)]
47.1	CN(C)CCCOc1ccc2nc(-c3ccc(-c4nc5ccc(SCCCN(C)C)cc5[nH]4)cc3)[nH]c2c1 [Compound 228, 3-((2-(4-(6-(3-(dimethylamino)propoxy)-1H-benzo[d]imidazol-2-yl)phenyl)-1H-benzo[d]imidazol-6-yl)thio)-N,N-dimethylpropan-1-amine]
> 200	N#Cc1cccc(Oc2ccc3nc(-c4ccc(-c5nc6ccc(Oc7cccc(C#N)c7)cc6[nH]5)cc4)[nH]c3c2)c1 [Compound 230, 3,3′-((2,2′-(1,4-phenylene)bis(1H-benzo[d]imidazole-6,2-diyl))bis(oxy))dibenzonitrile]
25	CN(C)CCCOc1ccc2nc(-c3ccc(-c4nc5ccc(C(=O)NCCN6CCCC6)cc5[nH]4)cc3)[nH]c2c1 [Compound 232, 2-(4-(6-(3-(dimethylamino)propoxy)-1H-benzo[d]imidazol-2-yl)phenyl)-N-(2-(pyrrolidin-1-yl)ethyl)-1H-benzo[d]imidazole-6-carboxamide]
39.5	CN(C)C/C=C/COc1ccc2nc(-c3ccc(-c4nc5ccc(OC/C=C/CN(C)C)cc5[nH]4)cc3)[nH]c2c1 [Compound 233, (2E,2′E)-4,4′-((2,2′-(1,4-phenylene)bis(1H-benzo[d]imidazole-6,2-diyl))bis(oxy))bis(N,N-dimethylbut-2-en-1-amine)]
39.8	NCc1cccc(Oc2ccc3nc(-c4ccc(-c5nc6ccc(Oc7cccc(CN)c7)cc6[nH]5)cc4)[nH]c3c2)c1 [Compound 234, (((2,2′-(1,4-phenylene)bis(1H-benzo[d]imidazole-6,2-diyl))bis(oxy))bis(3,1-phenylene))dimethanamine]
78.2	CN(C)CCCOc1ccc2nc(-c3ccc(-c4nc5ccc(OCCCN=[N+]=[N-])cc5[nH]4)cc3)[nH]c2c1 [Compound 235, 3-((2-(4-(6-(3-azidopropoxy)-1H-benzo[d]imidazol-2-yl)phenyl)-1H-benzo[d]imidazol-6-yl)oxy)-N,N-dimethylpropan-1-amine]
62.1	NCc1ccc(Oc2ccc3nc(-c4ccc(-c5nc6ccc(Oc7ccc(CN)cc7)cc6[nH]5)cc4)[nH]c3c2)cc1 [Compound 236, (((2,2′-(1,4-phenylene)bis(1H-benzo[d]imidazole-6,2-diyl))bis(oxy))bis(4,1-phenylene))dimethanamine]
26	CN(C)CCCOc1ccc2nc(-c3ccc(-c4nc5ccc(C(=O)NCCN6CCCCC6)cc5[nH]4)cc3)[nH]c2c1 [Compound 237, 2-(4-(6-(3-(dimethylamino)propoxy)-1H-benzo[d]imidazol-2-yl)phenyl)-N-(2-(piperidin-1-yl)ethyl)-1H-benzo[d]imidazole-6-carboxamide]
10	CN(C)CCCOc1ccc2nc(-c3ccc(-c4nc5ccc(C(=O)NCCN(C)C)cc5[nH]4)cc3)[nH]c2c1 [Compound 238]
24.8	CN(C)CCCNC(=O)c1ccc2nc(-c3ccc(-c4nc5ccc(OCCCN(C)C)cc5[nH]4)cc3)[nH]c2c1 [Compound 239]
64.7	CN(C)CCCOc1ccc2nc(-c3ccc(-c4nc5ccc(OCCCC#N)cc5[nH]4)cc3)[nH]c2c1 [Compound 241, 4-((2-(4-(6-(3-(dimethylamino)propoxy)-1H-benzo[d]imidazol-2-yl)phenyl)-1H-benzo[d]imidazol-6-yl)oxy)butanenitrile]
47.7	CN(C)Cc1ccc(Oc2ccc3nc(-c4ccc(-c5nc6ccc(Oc7ccc(CN(C)C)cc7)cc6[nH]5)cc4)[nH]c3c2)cc1 [Compound 242]
> 200	CN(C)Cc1cccc(Oc2ccc3nc(-c4ccc(-c5nc6ccc(Oc7cccc(CN(C)C)c7)cc6[nH]5)cc4)[nH]c3c2)c1 [Compound 243]
23.5	CN(C)C/C=C\COc1ccc2nc(-c3ccc(-c4nc5ccc(OC/C=C\CN(C)C)cc5[nH]4)cc3)[nH]c2c1 [Compound 244, (2Z,2′Z)-4,4′-((2,2′-(1,4-phenylene)bis(1H-benzo[d]imidazole-6,2-diyl))bis(oxy))bis(N,N-dimethylbut-2-en-1-amine)]
83.8	COc1ccc2nc(-c3ccc(-c4nc5ccc(OCCCN(C)C)cc5[nH]4)cc3)[nH]c2c1 [Compound 245, 3-((2-(4-(6-methoxy-1H-benzo[d]imidazol-2-yl)phenyl)-1H-benzo[d]imidazol-6-yl)oxy)-N,N-dimethylpropan-1-amine]
> 200	CN(C)CCCOc1ccc2nc(-c3ccc(-c4nc5ccccc5[nH]4)cc3)[nH]c2c1 [Compound 246]
6.8	CN(C)Cc1cn(-c2ccc3nc(-c4ccc(-c5nc6ccc(-n7cc(CN(C)C)nn7)cc6[nH]5)cc4)[nH]c3c2)nn1 [Compound 247]

SMILES	IC50 [µM]
CN(C)CCCCOc1ccc2nc(-c3ccc(-c4nc5ccc(O)cc5[nH]4)cc3)[nH]c2c1 [Compound 200, 2-(4-(6-(4-(dimethylamino)butoxy)-1H-benzo[d]imidazol-2-yl)phenyl)-1H-benzo[d]imidazol-6-ol]	32.1
CN(C)Cc1cccc(COc2ccc3nc(-c4ccc(-c5nc6ccc(OCc7cccc(CN(C)C)c7)cc6[nH]5)cc4)[nH]c3c2)c1 [Compound 213, 1,1′-((((1,4-phenylenebis(1H-benzo[d]imidazole-2,6-diyl))bis(oxy))bis(methylene))bis(3,1-phenylene))bis(N,N-dimethylmethanamine)]	22.8
CN(C)Cc1cn(CCOc2ccc3nc(-c4ccc(-c5nc6ccc(OCCn7cc(CN(C)C)nn7)cc6[nH]5)cc4)[nH]c3c2)nn1 [Compound 227]	120
N#Cc1ccc(Oc2ccc3nc(-c4ccc(-c5nc6ccc(Oc7ccc(C#N)cc7)cc6[nH]5)cc4)[nH]c3c2)cc1 [Compound 229, 4,4′-((2,2′-(1,4-phenylene)bis(1H-benzo[d]imidazole-6,2-diyl))bis(oxy))dibenzonitrile]	> 200
CN(C)CCCOc1ccc2nc(-c3ccc(-c4nc5ccc(OCCCC(F)(F)F)cc5[nH]4)cc3)[nH]c2c1 [Compound 240, N,N-dimethyl-3-((2-(4-(6-(4,4,4-trifluorobutoxy)-1H-benzo[d]imidazol-2-yl)phenyl)-1H-benzo[d]imidazol-6-yl)oxy)propan-1-amine]	71.5
